| melting point | SMILES |
| --- | --- |
| > 300 °C | Cl.N[C@H]1CC[C@H](Nc2nccc(-n3ccc4c(F)cccc43)n2)CC1 |
| 291 to 292 °C | CS(=O)(=O)CCCOc1cccc2c1ccn2-c1ccnc(N[C@H]2CC[C@H](N)CC2)n1.Cl |
| 263 to 264 °C | CS(=O)(=O)CCCOc1cccc2c1ccn2-c1ccnc(N[C@H]2CC[C@H](NC(=O)CCN)CC2)n1.Cl |
| 292 to 293 °C | CS(=O)(=O)CCCOc1cccc2c1ccn2-c1ccnc(N[C@H]2CC[C@H](CN)CC2)n1.Cl |
| 274 to 275 °C | Cl.NC[C@H]1CC[C@H](Nc2nccc(-n3ccc4c(OCCCC(F)(F)F)cccc43)n2)CC1 |
| 155 to 158.2 °C | CS(=O)(=O)CCCOc1cccc2c1ccn2-c1ccnc(N[C@H]2CC[C@H](C(=O)N3CCC(=O)CC3)CC2)n1 |
| 189.2 to 190 °C | CC1(C)OC[C@@H](COc2cccc3c2cnn3-c2ccnc(N[C@H]3CC[C@H](O)CC3)n2)O1 (stereo in doubt) [Compound 98, 4-{4-[4-(2,2-dimethyl-[1,3]dioxolan-4-ylmeth-oxy)-indazol-1-yl]-pyrimidin-2-ylamino}-cyclohexanol] |
| 196 to 198 °C | CC1(C)OC[C@@H](COc2cccc3c2cnn3-c2ccnc(N[C@H]3CC[C@H](C(=O)N4CCCC4)CC3)n2)O1 (stereo in doubt) [Compound 127, (4-{4-[4-(2,2-dimethyl-[1,3]dioxolan-4-yl-methoxy)-indazol-1-yl]-pyrimidin-2-ylamino}-cyclohexyl)-pyrrolidin-1-ylmethanone] |
| 247 to 247.8 °C | CC1(C)OC[C@@H](COc2cccc3c2cnn3-c2ccnc(N[C@H]3CC[C@H](NS(C)(=O)=O)CC3)n2)O1 (stereo in doubt) [Compound 128, N-(4-{4-[4-(2,2-di-methyl[1,3]dioxolan-4-ylmethoxy)-indazol-1-yl]-pyrimidin-2-yl-amino}-cyclohexyl)-methanesulfonamide] |
| 214.5 to 215.5 °C | CC(=O)N[C@H]1CC[C@H](Nc2nccc(-n3ncc4c(OC[C@@H]5COC(C)(C)O5)cccc43)n2)CC1 (stereo in doubt) [Compound 131, N-(4-{4-[4-(2,2-di-methyl[1,3]dioxolan-4-ylmethoxy)-indazol-1-yl]-pyrimidin-2-yl-amino}-cyclohexyl)-acetamide] |
| 178.5 to 180 °C | CC1(C)OC[C@@H](COc2cccc3c2cnn3-c2ccnc(N[C@H]3CC[C@H](C(C)(C)O)CC3)n2)O1 (stereo in doubt) [Compound 132, 2-(4-{4-[4-(2,2-di-methyl[1,3]dioxolan-4-ylmethoxy)-indazol-1-yl]-pyrimidin-2-yl-amino}-cyclohexyl)-propan-2-ol] |
| 166 to 167 °C | O=C([C@H]1CC[C@H](Nc2nccc(-n3ncc4c(OC[C@@H](O)CO)cccc43)n2)CC1)N1CCCC1 (stereo in doubt) [Compound 153, (4-{4-[4-(2,3-dihydroxy-propoxy)-indazol-1-yl]-pyrimidin-2ylamino}-cyclohexyl)-pyrrolidin-1-ylmethanone] |
| 202 to 205 °C | CC(=O)N[C@H]1CC[C@H](Nc2nccc(-n3ncc4c(OC[C@@H](O)CO)cccc43)n2)CC1 (stereo in doubt) [Compound 154, N-(4-{4-[4-(2,3-di-hydroxy-propoxy)-indazol-1-yl]-pyrimidin-2-ylamino}-cyclohexyl)-acetamide] |
| 199.4 to 200.4 °C | C[C@@H](CO)COc1cccc2c1cnn2-c1ccnc(N[C@H]2CC[C@H](C(=O)N3CCCC3)CC2)n1 (stereo in doubt) [Compound 171, (4-{4-[4-(3-hydroxy-2-methylpropoxy)-indazol-1-yl]-pyrimidin-2-ylamino}-cyclohexyl)-pyrrolidin-1-ylmethanone] |
| 215 to 216 °C | CC(=O)N[C@H]1CC[C@H](Nc2nccc(-n3ncc4c(OC[C@@H](C)CO)cccc43)n2)CC1 (stereo in doubt) [Compound 172, N-(4-{4-[4-(3-hydroxy-2-methylpropoxy)-indazol-1-yl]-pyrimidin-2-ylamino}-cyclohexyl)-acetamide] |
| 211 to 212.5 °C | C[C@@H](CO)COc1cccc2c1cnn2-c1ccnc(N[C@H]2CC[C@H](C(C)(C)O)CC2)n1 (stereo in doubt) [Compound 185, 3-(1-{2-[4-(2-hydroxy-prop-2-yl)-cyclohexyl-amino]-pyrimidin-4-yl}-1H-indazol-4-yloxy)-2-methylpropan-1-ol] |
| 222 to 224 °C | C[C@@H](CO)COc1cccc2c1cnn2-c1ccnc(N[C@H]2CC[C@H](N(C)S(C)(=O)=O)CC2)n1 (stereo in doubt) [Compound 186, N-(4-{4-[4-(3-hydroxy-2-methylpropoxy)-indazol-1-yl]-pyrimidin-2-ylamino}-cyclohexyl)-N-methyl-methanesulfonamide] |

| melting point | SMILES |
| --- | --- |
| 211 to 212 °C | CS(=O)(=O)C[C@H](O)COc1cccc2c1cnn2-c1ccnc(N[C@H]2CC[C@H](O)CC2)n1 (stereo in doubt) [Compound 198, 4-{4-[4-(2-hydroxy-3-methanesulfonyl-propoxy)-indazol-1-yl]-pyrimidin-2-ylamino}-cyclohexanol] |
| 174 to 175 °C | CS(=O)(=O)CCCOc1cccc2c1cnn2-c1ccnc(N[C@H]2CC[C@H](C(=O)N3CC[C@@H](O)C3)CC2)n1 (stereo in doubt) [Compound 216, (3-hydroxy-pyrrolidin-1-yl)-(4-{4-[4-(3-methane-sulfonyl-propoxy)-indazol-1-yl]-pyrimidin-2-ylamino}-cyclohexyl)-methanone] |
| 175 to 176 °C | CS(=O)(=O)CCCOc1cccc2c1cnn2-c1ccnc(N[C@H]2CC[C@H](C(=O)N3CC[C@H](O)C3)CC2)n1 (stereo in doubt) [Compound 217, (3-hydroxy-pyrrolidin-1-yl)-(4-{4-[4-(3-methane-sulfonyl-propoxy)-indazol-1-yl]-pyrimidin-2-ylamino}-cyclohexyl)-methanone] |
| 232 to 233 °C | CS(=O)(=O)C[C@H](O)COc1cccc2c1cnn2-c1ccnc(N[C@H]2CC[C@H](C(=O)N3CCC(O)CC3)CC2)n1 (stereo in doubt) [Compound 234, (4-{4-[4-(2-hydroxy-3-methanesulfonyl-propoxy)-indazol-1-yl]-pyrimidin-2-ylamino}-cyclohexyl)-(4-hydroxy-piperidin-1-yl)-methanone] |
| 161 to 162 °C | NS(=O)(=O)CCCOc1cccc2c1cnn2-c1ccnc(N[C@H]2CC[C@H](C(=O)N3CC[C@H](O)C3)CC2)n1 (stereo in doubt) [Compound 252, 3-(1-{2-[4-(3-hydroxy-pyrrolidine-1-carbonyl)-cyclohexylamino]-pyrimidin-4-yl}-1H-indazol-4-yloxy)-propane-1-sulfonic acid amide] |
| 178 to 179 °C | NS(=O)(=O)CCCOc1cccc2c1cnn2-c1ccnc(N[C@H]2CC[C@H](C(=O)N3CC[C@@H](O)C3)CC2)n1 (stereo in doubt) [Compound 253, 3-(1-{2-[4-(3-hydroxy-pyrrolidine-1-carbonyl)-cyclohexylamino]-pyrimidin-4-yl}-1H-indazol-4-yloxy)-propane-1-sulfonic acid amide] |
| 214 to 215 °C | CC(C)(CO)COc1cccc2c1cnn2-c1ccnc(N[C@H]2CC[C@H](C(=O)N3CC[C@@H](O)C3)CC2)n1 (stereo in doubt) [Compound 261, (4-{4-[4-(3-hydroxy-2,2-dimethyl-propoxy)-indazol-1-yl]-pyrimidin-2-ylamino}-cyclohexyl)-(3-hydroxy-pyrrolidin-1-yl)-methanone] |
| 92 to 93 °C | COC[C@@H]1CCCN1C(=O)[C@H]1CC[C@H](Nc2nccc(-n3ccc4c(OCCCS(C)(=O)=O)cccc43)n2)CC1 (stereo in doubt) [Compound 266, (4-{4-[4-(3-methane-sulfonyl-propoxy)-indol-1-yl]-pyrimidin-2-ylamino}-cyclohexyl)-(2-methoxymethyl-pyrrolidin-1-yl)-methanone] |
| 230 to 231 °C | C[C@@H]1CC[C@@H](C)N1C(=O)[C@H]1CC[C@H](Nc2nccc(-n3ncc4c(OCCCS(N)(=O)=O)cccc43)n2)CC1 (stereo in doubt) [Compound 271, 3-(1-{2-[4-(2,5-di-methyl-pyrrolidine-1-carbonyl)-cyclohexyl-amino]-pyrimidin-4-yl}-1H-indazol4-yloxy)-propane-1-sulfonic acid amide] |
| 230 to 231 °C | C[C@@H]1CCCN1C(=O)[C@H]1CC[C@H](Nc2nccc(-n3ncc4c(OCCCS(N)(=O)=O)cccc43)n2)CC1 (stereo in doubt) [Compound 272, 3-(1-{2-[4-(2-methyl-pyrrolidine-1-carbonyl)-cyclohexylamino]-pyrimidin-4-yl}-1H-indazol4-yloxy)-propane-1-sulfonic acid amide] |
| 230 to 231 °C | C[C@H]1CCCN1C(=O)[C@H]1CC[C@H](Nc2nccc(-n3ncc4c(OCCCS(N)(=O)=O)cccc43)n2)CC1 (stereo in doubt) [Compound 273, 3-(1-{2-[4-(2-methyl-pyrrolidine-1-carbonyl)-cyclohexylamino]-pyrimidin-4-yl}-1H-indazol-4-yloxy)-propane-1-sulfonic acid amide] |
| 221.8 to 223 °C | O=[N+]([O-])c1ccc2cnn(-c3ccnc(N[C@H]4CC[C@H](O)CC4)n3)c2c1 [Compound 27] |
| 206.7 to 208.3 °C | COC(=O)c1cccc2c1ccn2-c1ccnc(N[C@H]2CC[C@H](O)CC2)n1 [Compound 37, 1-[2-(4-hydroxycyclo-hexylamino)-pyrimidin-4-yl]-1H-indole-4-carboxylic acid methyl ester] |
| 270.1 to 273.3 °C | N[C@H]1CC[C@H](Nc2nccc(-n3ccc4ccccc43)n2)CC1 [Compound 52, N-(4-indol-1-yl-pyrimidin-2-yl)-cyclo-hexane-1,4-diamine] |
| 192.5 to 193 °C | c1ccc2c(c1)ccn2-c1ccnc(NC2CCCCC2)n1 [Compound 66, Cyclohexyl-(4-indol-1-ylpyrimidin-2-yl)amine] |
| 180 to 183.3 °C | Cn1nc(-c2ccnc(N[C@H]3CC[C@H](O)CC3)n2)c2ccccc21 [Compound 77, 4-[4-(1-methyl-1H-indazol-3-yl)pyridimidin-2-ylamino]-cyclo-hexanol] |
| 243.3 to 244.9 °C | COc1cccc2c(-c3ccnc(N[C@H]4CC[C@H](O)CC4)n3)n[nH]c12 [Compound 80, 4-[4-(7-methoxy-1H-indazol-3-yl)-pyrimidin-2-ylamino]-cyclo-hexanol] |

From US8399462B2, “JNK modulators” (Roche Palo Alto LLC, priority 2006, dated 2013)
